Experimental data from article PMC8754131 (Microbiology Spectrum, 2022).
No end group written: not given here.

Columns and labels:
[1] = tested on: bacteria; details: cited from earlier work
[2] = tested on: RecA; test: RecA mRNA by real-time RT-PCR in MRPA; type: cell-based; details: mRNA normalized to 16s
[3] = tested on: MRSA; test: bacterial clearance in lung lavage fluid of rats with MRSA-induced pneumonia; type: in vivo, rat; details: HNP-1 0.1 ml of 20 μg/ml (2 μg); penicillin 12 μg/ml; intratracheal spray once daily for 3 days
Method: (B) Comparison of the bacterial counts in the different treatment groups. The number of MRSA isolated from lung lavage fluid were counted on the agar-containing culture plates followed by culturing for 36 h at 37°C. […] Data were analyzed using a two-tailed Student's t test and are plotted as the mean ± SD for each condition. n = 3; *, P < 0.05; and **, P < 0.01.
(§1) MRSA and MRPA were isolated from the Affiliated Hospital of Xuzhou Medical University (Jiangsu, China) and obtained from Professor Shengqi Wang (Xuzhou Medical University, Jiangsu, China). Bacterial pneumonia rats were prepared by spraying MRSA suspensions into the lungs via the trachea with a long soft plastic tube, as described in our previous research ([30]). The rats were inoculated using tracheal intubation with 0.2 ml of 10^8 CFU/ml MRSA suspensions. After 8 h, the rats were given medication. […] All of the medicines were sprayed into the rat lungs through the trachea using an intratracheal MicroSprayer Aerosolizer (IA-1B; PennCentury Inc., Wyndmoor, PA, USA) once daily for 3 days without anesthesia.
Preparation of pneumonic model rats and medicine administration.
(§2) clinically isolated bacterial strain MRSA was cultivated in LB medium at 37 °C with
(§3) continuous shaking (200 rpm) overnight. Then, the concentration of MRSA was
(§4) determined by the optical density (OD) at 600 nm based on the turbidity of the cell
suspension. […]

[4] = H&E lung pathology; type: in vivo, rat; details: MRSA-induced pneumonic rats
Method: (C) Pathological evaluation via H&E staining in pneumonic model rats. […] Data were analyzed using a two-tailed Student's t test and are plotted as the mean ± SD for each condition. n = 3; *, P < 0.05; and **, P < 0.01.
as §1
Preparation of pneumonic model rats and medicine administration. The
as §2, §3, §4
suspension. Subsequently, the bacterial suspension was diluted with LB medium, and
a final density of 10^8 CFU/mL was obtained for animal testing. Male […]

[5] = tested on: RecA; details: real-time RT-PCR, mRNA normalized to 16s
Method: (F) Quantification of RecA mRNA in MRSA by real-time RT-PCR.
Analysis of gene expression by real-time RT-PCR. mRNA from RecA and
LexA was measured by real-time PCR (RT-PCR). XPX-1 cells harvested 3 h after
induction and the total RNA was extracted with the TRIzol® Reagent (Thermo
Fisher Scientific, Waltham, MA, USA) according to the manufacturer’s instruction.
Reversed transcription was performed with the ReverTra Ace qPCR RT Kit
(TOYOBO, Osaka, Japan). The primer sequence of RecA and LexA was as follows:
RecA (forward 5’-[sequence]-3’, reverse
5’-[sequence]-3’); LexA (forward
5’-[sequence]-3 ’ , reverse 5 ’
-[sequence]-3’ ). The relative expression level of RecA and
LexA was normalized to 16s by using the 2- CT method(11).

[6] = tested on: RecA
Method: The inclusion bodies were solubilized in denaturing solution (20 mM Tris, 8 M urea, 20 mM DTT, pH 8.5) at a ratio of 1:20 (grams of inclusion body wet weight: mL of volume) and the suspension was shaken gently for 4 h at room temperature.
After centrifugation at 12,000 ×g for 15 min, the supernatant was diluted directly into refolding buffer (20 mM Tris,1 mM cystine, 3 mM cysteine, 2 M urea, pH 10.0).
After refolding at 4°C overnight, the sample pH was adjusted to 4.5 and the sample was centrifuged at 4,000 ×g for 20 min.
The solubilized protein samples were loaded onto a pre-equilibrated HiTrap Chelating HP (5 mL, GE Healthcare, Chicago, IL, USA) ata flow rate of 10 mL/min inbuffer A (20 mM Tris, 2 M NaCl, pH 7.5). […] The purified preproHNP-1 was quantified with BCA according to standard procedures. […]
imidazole) and analyzed by a 12% Tris-Tricine gel followed by Coomassie brilliant blue G-250 staining. […]
Proteomics analysis. […] After in-gel digestion by trypsin, the samples were analyzed by LC-MS/MS using a homemade column (75 μm internal diameter ×15 cm long) packed with 3 μm C18 reverse phase beads (Michrom Bioresources, Inc., Auburn, CA, USA), a 60 min gradient was performed on an LTQ-Orbitrap Velos mass spectrometer (Thermo Fisher Scientific, San Jose, CA, USA). […]

[7] = tested on: E. coli strain XPX-1; test: growth and viable count of E. coli XPX-1 after IPTG-induced expression; type: cell-based; details: XPX-1, 1 mM IPTG, Luria-Bertani medium, 37°C
Method: XPX-1 cells were grown to an approximate optical density (OD600) of 0.4 in 20 ml of Luria−Bertani medium containing kanamycin (50 μg/ml) at 37°C, and then IPTG was added at a final concentration of 1 mM to induce the expression of preproHNP-1.
(B) Growth curves of E. coli strain XPX-1 containing pET-28a(+)-preproHNP-1 with (+IPTG) or without (−IPTG) 1 mM IPTG induction. […] Data were analyzed using a two-tailed Student's t test and plotted as the mean ± SD for each condition. **, P < 0.01.
The induction time points of IPTG are labeled as indicated. […] The induction time points of IPTG are labeled as indicated. (D) Bacterial colony count after IPTG induction. The induction time points are labeled as indicated. The number of viable cells were counted after growing for 16 h on plates containing Luria-Bertani broth media. […] The growth curve of E. coli strain XPX-1 with 1 mM IPTG induction as a positive control and XPX-1 without IPTG induction as a negative control. […] Data were analyzed using a two-tailed Student's t test and are plotted as the mean ± SD for each condition. *, P < 0.05 and **, P < 0.01.
E. coli strains and plasmids.
After verifying the sequence, the vectors were transformed into E. coli BL21 (DE3) competent cells to obtain XPX-1, which was used to express the recombinant protein preproHNP-1. […]

[8] = tested on: E. coli; test: growth curve of E. coli treated with purified recombinant peptides; type: cell-based; details: 20 μg/ml; compared with regular growth medium without IPTG induction
Method: Data were analyzed using a two-tailed Student's t test and are plotted as the mean ± SD for each condition. *, P < 0.05 and **, P < 0.01.
PreproHNP-1 was purified from E. coli under denaturing conditions ([48]), as described in the Supplementary Materials and Methods. […] The mixture was disrupted using a Soniprep Sonicator (Scientz, Ningbo, China) at the power of 25% for 25 cycles. The resultant TCL was centrifuged at 10,000 g for 25 min. The supernatant was loaded into an Amicon Ultra-0.5 ml centrifugal concentration unit (3 kDa MWCO, Millipore, Burlington, MA, USA) and centrifuged at 5,000 g for 10 min to recover the filtered solution. This step was repeated three times. All filtered solutions were pooled for quality checks and then diluted to a concentration of 20 μg/ml before use in antimicrobial activity assays.
E. coli strains and plasmids. E. coli strain BL21 (DE3), E. coli strain DH5α and vector pET-28a(+) were stored at−80 °C in our laboratory. The DNA sequence of preproHNP-1 and flanked with EcoR I and Xho I was generated from synthetic oligonucleotides according to a reference sequence (NM_004084.3). The products were ligated into the pET-28a(+) vector encoding a fragment with six histidine (His6)
The resulting vectors were transformed into the E. coli DH5α cells and after isolation and purification, they were subjected to the DNA sequence analysis. […]

For “HNP-2: antimicrobial peptide cited for filamentation (CYCRIPACIAGERRYGTCIYQGRLWAFCC; ends and bridges not checked; cysteine pairing not given here; UniProt P59665 66-94, looked up)”, the AMP-induced filamentation [1] is given as “filamentation has also been described”.

For penicillin, the “RecA expression in MRPA” value [2] was “increased significantly”, the bacterial clearance effect [3] was “neither HNP-1 nor penicillin treatment had any effect” and the “exudation, inflammation, hemorrhage (H&E)” value [4] was “alleviated these symptoms to a certain degree”. For the same molecule, the “RecA expression in MRSA” value [5] was “increased significantly”.

For “indolicidin (ILPWKWPWWPWRR; ends and bridges not checked; UniProt P33046 131-143, looked up) [antimicrobial peptide cited for filamentation]”, the AMP-induced filamentation [1] is listed as “filamentation has also been described”.

For PR-39, the AMP-induced filamentation [1] is given as “filamentation has also been described”.

B1: preproHNP-1: full-length precursor of HNP-1 tagged with six histidine residues, cloned into pET-28a(+), expressed in E. coli XPX-1 (protein, UniProt P59665 1-94, looked up)
chain: MRTLAILAAILLVALQAQAEPLQARADEVAAAPEQIAADIPEVVVSLAWDESLAPKHPGSRKNMACYCRIPACIAGERRYGTCIYQGRLWAFCC
modifications: full-length His6 tag
In the case of B1, the “interaction with RecA” value ([6]; anti-RecA co-immunoprecipitation) is reported as “HNP-1, but not full length 6x His-tagged preproHNP-1, interacted with RecA”, the “co-precipitation with RecA over induction time” value ([6]; anti-RecA immunoprecipitation, Western blot with anti-HNP-1) is reported as “decreased with time” and the “OD600 reached after induction” value [7] is reported as ~1. The “growth curve of E. coli in medium with purified protein” value [8] was “did not differ from those cultured in regular growth medium without IPTG induction”.

B2: HNP-5: antimicrobial peptide cited for filamentation (peptide, UniProt Q01523 20-94, looked up)
Defensin alpha 5: ESLQERADEATTQKQSGEDNQDLAISFAGNGLSALRTSGSQARATCYCRTGRCATRESLSGVCEISGRLYRLCCR
modifications: Defensin-5
notes: antimicrobial peptide cited for filamentation
For B2, the AMP-induced filamentation [1] is listed as “filamentation has also been described”.
